Experimental data as given in the CheMixHub ionic liquid set.

Test: xn = mol fraction of the nth substance listed

CCCC[n+]1ccn(C)c1.F[B-](F)(F)F + CCCC[n+]1ccn(C)c1.F[P-](F)(F)(F)(F)F
101 kPa, x2 = 0
Details	viscosity [mPa·s]
299.15 K	101.9
301.15 K	92
303.15 K	83.4

CCCC[n+]1ccn(C)c1.F[B-](F)(F)F + CC(=O)N(C)C
Details	electrical conductivity [S/m]	viscosity [mPa·s]
288.15 K, 100 kPa, x1 = 5.846e-05	0.003905	–
288.15 K, 100 kPa, x1 = 0.0006944	0.04135	–
293.15 K, 101 kPa, x1 = 0.7419	–	51.8
293.15 K, 101 kPa, x1 = 0.8488	–	74
293.15 K, 101 kPa, x1 = 0.9175	–	96
293.15 K, 101 kPa, x1 = 1	–	125
298.15 K, 100 kPa, x1 = 0.0002592	0.01885	–
298.15 K, 101 kPa, x1 = 0.7419	–	44.6
298.15 K, 101 kPa, x1 = 0.8488	–	63.1
298.15 K, 101 kPa, x1 = 0.9175	–	81
298.15 K, 101 kPa, x1 = 1	–	105
303.15 K, 101 kPa, x1 = 0.7419	–	36.7
303.15 K, 101 kPa, x1 = 0.8488	–	52.7
303.15 K, 101 kPa, x1 = 0.9175	–	67
303.15 K, 101 kPa, x1 = 1	–	88
308.15 K, 100 kPa, x1 = 5.846e-05	0.005095	–
308.15 K, 100 kPa, x1 = 0.0008703	0.06575	–
308.15 K, 100 kPa, x1 = 0.001047	0.07765	–
308.15 K, 101 kPa, x1 = 0.7419	–	29.6
308.15 K, 101 kPa, x1 = 0.8488	–	43.4
308.15 K, 101 kPa, x1 = 0.9175	–	54.9
308.15 K, 101 kPa, x1 = 1	–	72
313.15 K, 101 kPa, x1 = 0.7419	–	22.6
313.15 K, 101 kPa, x1 = 0.8488	–	33.5
313.15 K, 101 kPa, x1 = 0.9175	–	42.9
313.15 K, 101 kPa, x1 = 1	–	57.7
313.15 K, 101 kPa, x2 = 0.5002	–	9.57
313.15 K, 101 kPa, x2 = 0.8999	–	1.434
318.15 K, 101 kPa, x1 = 0.7419	–	16.2
318.15 K, 101 kPa, x1 = 0.8488	–	24.3
318.15 K, 101 kPa, x1 = 0.9175	–	31.8
318.15 K, 101 kPa, x1 = 1	–	44
323.15 K, 101 kPa, x1 = 0.7419	–	9.8
323.15 K, 101 kPa, x1 = 0.8488	–	16.2
323.15 K, 101 kPa, x1 = 0.9175	–	22.3
323.15 K, 101 kPa, x1 = 1	–	31.6
323.15 K, 101 kPa, x2 = 0.5998	–	5.02
323.15 K, 101 kPa, x2 = 0.6996	–	3.3
323.15 K, 101 kPa, x2 = 0.8999	–	1.253
333.15 K, 101 kPa, x2 = 0.8002	–	1.77

CC1COC(=O)O1 (stereo unspecified) + CC[n+]1ccn(C)c1C.O=S(=O)([N-]S(=O)(=O)C(F)(F)F)C(F)(F)F
101.3 kPa, x2 = 0
Details	viscosity [mPa·s]
308.15 K	2.049
348.15 K	1.14

CCCC[n+]1ccn(C)c1.F[B-](F)(F)F + N[C@@H](Cc1c[nH]cn1)C(=O)O + O
viscosity [mPa·s], 100 kPa
Details	293.15 K	298.15 K	303.15 K	308.15 K	313.15 K	318.15 K
x2 = 0, x1 = 0.0003603	1.03	0.917	0.835	0.751	0.693	0.638
x2 = 0, x1 = 0.0007203	1.062	0.951	0.868	0.789	0.736	0.681
x2 = 0, x1 = 0.00108	1.093	0.983	0.904	0.83	0.779	0.725

O=C1CCCCO1 + CCCC[n+]1ccn(C)c1.O=S(=O)([N-]S(=O)(=O)C(F)(F)F)C(F)(F)F
100 kPa, frequency 0.01 MHz
Details	electrical conductivity [S/m]
293.15 K, x2 = 0.1504	0.602
293.15 K, x2 = 0.4006	0.589
293.15 K, x2 = 0.8475	0.346
298.15 K, x2 = 0.1004	0.428
298.15 K, x2 = 0.4006	0.665
298.15 K, x2 = 0.5005	0.594
298.15 K, x2 = 0.5999	0.484
303.15 K, x2 = 0.1004	0.471
303.15 K, x2 = 0.1504	0.717
308.15 K, x2 = 0.0532	0.209
308.15 K, x2 = 0.1004	0.512
308.15 K, x2 = 0.2988	0.9
308.15 K, x2 = 0.7214	0.609
318.15 K, x2 = 0.1999	1.04
323.15 K, x2 = 0.0532	0.263
323.15 K, x2 = 0.1504	1
323.15 K, x2 = 0.1999	1.13
323.15 K, x2 = 0.7214	0.895
